Calls of active or inactive are those of the source. No cut-off for these calls is given here.
Columns and labels:
[1] = Binding affinity to FAM-TWJ-S1/TWJ-S2/TAMRA-TWJ-S3 DNA (unknown origin) assessed as normalized FAM intensity at 1 uM measured at 5 mins interval for 1 hr by fluorescence assay relative to control
[2] = Binding affinity to FAM-TWJ-S1 DNA (unknown origin) assessed as normalized FAM intensity at 1 uM measured at 5 mins interval for 1 hr by fluorescence assay relative to control
[3] = Binding affinity to FAM-TWJ-TAMRA DNA (unknown origin) assessed as change in melting temperature at 1 uM after 30 mins by FRET assay
[4] = Binding affinity to TWJ-S1/TWJ-S2/TWJ-S3 DNA (unknown origin) assessed as compound-DNA complex formation at 30 uM measured after 1 hr by sybrgold-staining based PAGE analysis
[5] = Binding affinity to FAM-TWJ-TAMRA DNA (unknown origin) assessed as change in melting temperature at 1 uM after 30 mins in presence of 3 uM ds26 DNA by FRET assay
[6] = Selectivity ratio of compound effect for binding affinity to FAM-TWJ-TAMRA DNA (unknown origin) assessed as change in melting temperature at 1 uM in absence of 10 uM ds26 DNA to compound effect for binding affinity to FAM-TWJ-TAMRA DNA (unknown origin) assessed as change in melting temperature at 1 uM in presence of 10 uM ds26 DNA
[7] = Binding affinity to FAM-TWJ-TAMRA DNA (unknown origin) assessed as change in melting temperature at 1 uM after 30 mins in presence of 10 uM ds26 DNA by FRET assay
[8] = Binding affinity to TWJ DNA (unknown origin) assessed as equilibrium binding constant at 1:2 DNA to compound ratio after 1 hr by ESI-MS analysis
[9] = Binding affinity to TWJ DNA (unknown origin) measured after 24 hrs by equilibrium dialysis method
[10] = Binding affinity to ds17 DNA measured after 24 hrs by equilibrium dialysis method
[11] = Selectivity ratio of K for TWJ DNA (unknown origin) to K for ds17 DNA (unknown origin)
[12] = Cytotoxicity against human hTERT-BJ cells assessed as reduction in cell viability measured after 72 hrs by SRB assay; assay type: cell-based; conditions: read-out: LD50
[13] = Binding affinity to ds17 DNA (unknown origin) assessed as equilibrium binding constant at 1:2 DNA to compound ratio after 1 hr by ESI-MS analysis
[14] = tested on: MDA-MB-231; experiment: Antiproliferative activity against human MDA-MB-231 cells assessed as reduction in cell viability measured after 72 hrs by SRB assay; assay type: functional; conditions: MDA-MB-231, 72 h, read-out: LD50 (the source's name)
[15] = Selectivity ratio of Kapp for TWJ DNA (unknown origin) to Kapp for ds17 DNA by equilibrium dialysis method (unknown origin)
[16] = tested on: MCF7; experiment: Antiproliferative activity against human MCF7 cells assessed as reduction in cell viability measured after 72 hrs by SRB assay; assay type: functional; conditions: MCF7, 72 h, read-out: LD50 (the source's name)
[17] = tested on: MCF7; experiment: Induction of DNA damage in human MCF7 cells assessed as gammaH2AX accumulation at 10 times antiproliferative LD50 measured after 72 hrs by DAPI staining-based confocal laser scanning microscopic analysis; assay type: functional, cell-based
[18] = Selectivity index, ratio of LD50 for human hTERT-BJ cells to LD50 for human MDA-MB-231 cells; assay type: toxicity; conditions: hTERT-BJ cells versus MDA-MB-231 cells, read-out: Selectivity Index
[19] = Selectivity index, ratio of LD50 for human hTERT-BJ cells to LD50 for human MCF7 cells; assay type: toxicity; conditions: hTERT-BJ cells versus MCF7 cells, read-out: Selectivity Index
[20] = Binding affinity to ds17 DNA (unknown origin) assessed as equilibrium binding constant at 1:3 DNA to compound ratio after 1 hr by ESI-MS analysis
[21] = Binding affinity to FAM-TWJ-S1/TWJ-S2/TWJ-S3 DNA (unknown origin) assessed as compound-DNA complex formation at 12 uM measured after 1 hr in presence of ds12 DNA by sybrgold-staining based PAGE analysis

CN(C)CCCNCC12c3ccccc3C(CNCCCN(C)C)(c3ccccc31)c1ccccc12
Ratio [1]: 27% | Ratio [2]: 100% | ΔTm [3]: 0.6 °C | Activity [4]: inactive

Cn1c[n+](-c2ccc3ccc4cccc5ccc2c3c45)cn1
Ratio [1]: 22% | Ratio [2]: 101% | ΔTm [3]: 1.5 °C | Activity [4]: inactive

C[n+]1ccc(-c2c3nc(c(-c4cc[n+](C)cc4)c4ccc([nH]4)c(-c4cc[n+](C)cc4)c4ccc([nH]4)c(-c4cc[n+](C)cc4)c4nc2C=C4)C=C3)cc1
ΔTm [5]: 12 °C | Ratio [1]: 86% | Ratio [2]: 8% | ΔTm [3]: 22.5 °C | Selectivity ratio [6]: 35% | ΔTm [7]: 8 °C

c1cc2ccc3cc2cc1CNCCNCCNCc1ccc2ccc(cc2c1)CNCCNCCNC3
ΔTm [5]: < 5 °C | Ratio [1]: 46% | Ratio [2]: 37% | ΔTm [3]: 4.2 °C | Activity [4]: Active

c1cc2nc3ccc4cc3cc2cc1CNCCOCCNCc1ccc2nc3ccc(cc3cc2c1)CNCCOCCNC4
K [8]: 1.9 ×10⁹ /M | Kapp [9]: 1.4 ×10⁷ /M | Kapp [10]: 3.8 ×10⁵ /M | ΔTm [5]: 20.4 °C | Ratio [1]: 54% | Selectivity ratio [11]: > 4 | Ratio [2]: 27% | CC50 at 72 h [12]: 1 µM | K [13]: 3.1 ×10⁴ /M | ΔTm [3]: 23 °C | CC50 [14]: 2.8 µM | Selectivity ratio [15]: > 1 | CC50 [16]: 4.8 µM | Selectivity ratio [6]: 84% | ΔTm [7]: 17.1 °C

c1cc2c3cccc(c3c1)CNCCOCCNCc1cccc3c(cccc13)CNCCOCCNC2
K [8]: 4.7 ×10⁷ /M | Kapp [9]: 8.7 ×10⁶ /M | Kapp [10]: 5.9 ×10⁵ /M | ΔTm [5]: 8.9 °C | Ratio [1]: 42% | Selectivity ratio [11]: > 2 | Ratio [2]: 118% | CC50 at 72 h [12]: 0.04 µM | K [13]: 7.5 ×10⁴ /M | ΔTm [3]: 10.4 °C | Activity [4]: Active | CC50 [14]: 0.16 µM | Selectivity ratio [15]: > 1 | CC50 [16]: 1.3 µM | Selectivity ratio [6]: 82% | ΔTm [7]: 8.5 °C

c1cc2cc(c1)-c1cccc(c1)CNCCN1CCNCc3cccc(c3)-c3cccc(c3)CNCCN(CCNC2)CCNCc2cccc(c2)-c2cccc(c2)CNCC1
Activity [17]: Active | K [8]: 3.9 ×10⁶ /M | Kapp [9]: 6 ×10⁶ /M | Kapp [10]: 4.7 ×10⁴ /M | ΔTm [5]: 16.6 °C | Ratio [1]: 33% | Selectivity ratio [11]: > 2 | Ratio [2]: 109% | selectivity ratio [18]: 2 | selectivity ratio [19]: 2 | K [20]: 7.5 ×10³ /M | CC50 at 72 h [12]: 2.6 µM | K [13]: inactive | ΔTm [3]: 17.5 °C | Activity [4]: Active | CC50 [14]: 1.3 µM | Selectivity ratio [15]: > 2 | CC50 [16]: 0.1 µM | Activity [21]: Active | Selectivity ratio [6]: 91% | ΔTm [7]: 15.9 °C

c1cc2ccc3ccc(-[n+]4csc5ccccc54)c4ccc(c1)c2c34
Ratio [1]: 23% | Ratio [2]: 100% | ΔTm [3]: 0 °C | Activity [4]: inactive

COCCOCCOCC[n+]1ccc(-c2c3nc(c(-c4cc[n+](CCOCCOCCOC)cc4)c4ccc([nH]4)c(-c4cc[n+](CCOCCOCCOC)cc4)c4nc(c(-c5cc[n+](CCOCCOCCOC)cc5)c5ccc2[nH]5)C=C4)C=C3)cc1
ΔTm [5]: 7 °C | Ratio [1]: 72% | Ratio [2]: 27% | ΔTm [3]: 11 °C | Selectivity ratio [6]: 36% | ΔTm [7]: 4 °C

c1cc2c3nc4c(cccc4cc3c1)CNCCOCCNCc1cccc3cc4cccc(c4nc13)CNCCOCCNC2
ΔTm [5]: 5.5 °C | Ratio [1]: 35% | Ratio [2]: 80% | ΔTm [3]: 11.6 °C | Selectivity ratio [6]: 39% | ΔTm [7]: 4.6 °C

NCCCNC[C@]12c3ccccc3[C@](CNCCCN)(c3ccccc31)c1cc3ccccc3cc12
Ratio [1]: 63% | Ratio [2]: 40% | ΔTm [3]: 0.8 °C | Activity [4]: inactive
